Activity calls are given as the source filed them. The calls are words filed in the database; no cut-off is given here.
Assays:
[1] = Subacute toxicity in C57BL/6 mouse assessed as change in heart weight at 10 mg/kg,ip administrated for 14 days; type: organism-based; conditions: in vivo, 336 h, time 14 day
[2] = Drug distribution in Sprague-Dawley rat lung at 1 mg/kg,iv measured for 0.5 to 2 hrs by HPLC-MS/MS analysis; type: ADME, organism-based; conditions: in vivo, time 0.5-2 hrs
[3] = Drug distribution in Sprague-Dawley rat small intestine at 1 mg/kg,iv measured for 0.5 to 2 hrs by HPLC-MS/MS analysis; type: ADME, organism-based; conditions: in vivo, time 0.5-2 hrs
[4] = Acute toxicity in Kunming mouse model assessed as lethargy at 2000 mg/kg,IG administration for 7 days; type: organism-based; conditions: in vivo, po, 168 h, time 7 day
[5] = Acute toxicity in Kunming mouse model assessed as change in body weight at 2000 mg/kg,IG administration for 7 days; type: organism-based; conditions: in vivo, po, 168 h, time 7 day
[6] = Subacute toxicity in C57BL/6 mouse assessed as colon histological changes at 10 mg/kg,ip administrated for 14 days; type: organism-based; conditions: in vivo, 336 h, time 14 day
[7] = Stability of compound in rat liver measured for 48 hrs; type: ADME, tissue-based
[8] = test system: Mus musculus; experiment: Anti-inflammatory activity in DSS-induced ulcerative colitis C57BL/6 mouse model assessed as decrease in caspase-1 expression in colon at 10 mg/kg,ip administrated for 9 days by immunohistochemistry analysis; type: functional, organism-based; conditions: time 9.0 day
[9] = Subacute toxicity in C57BL/6 mouse assessed as change in colon weight at 10 mg/kg,ip administrated for 14 days; type: organism-based; conditions: in vivo, 336 h, time 14 day
[10] = Subacute toxicity in C57BL/6 mouse assessed as change in kidney weight at 10 mg/kg,ip administrated for 14 days; type: organism-based; conditions: in vivo, 336 h, time 14 day
[11] = Subacute toxicity in C57BL/6 mouse assessed as spleen histological changes at 10 mg/kg,ip administrated for 14 days; type: organism-based; conditions: in vivo, 336 h, time 14 day
[12] = Drug distribution in Sprague-Dawley rat colon at 1 mg/kg,iv measured for 0.5 hrs by HPLC-MS/MS analysis; type: ADME, organism-based; conditions: read-out: Ct
[13] = Subacute toxicity in C57BL/6 mouse assessed as heart histological changes at 10 mg/kg,ip administrated for 14 days; type: organism-based; conditions: in vivo, 336 h, time 14 day
[14] = Subacute toxicity in C57BL/6 mouse assessed as change in lung weight at 10 mg/kg,ip administrated for 14 days; type: organism-based; conditions: in vivo, 336 h, time 14 day
[15] = test system: Mus musculus; experiment: Anti-inflammatory activity in DSS-induced ulcerative colitis C57BL/6 mouse model assessed as increase in colon length at 10 mg/kg,ip administrated for 9 days; type: functional, organism-based; conditions: time 9.0 day
[16] = Subacute toxicity in C57BL/6 mouse assessed as lung histological changes at 100 mg/kg,ip administrated for 14 days; type: organism-based; conditions: in vivo, 336 h, time 14 day
[17] = test system: J774.A1; experiment: […] of pyroptosis in mouse J774.A1 cells assessed as decrease in LDH release at 0.1 to 30 uM stimulated with LPS for 4.5 hs followed by incubation with compound for 30 mins and ATP addition for 30 mins by microplate reader assay; type: functional, cell-based; conditions: dose 0.1-30 µM, time 1.0 hrs
[18] = Stability of compound in human plasma measured for 48 hrs; type: ADME, cell-free
[19] = Acute toxicity in Kunming mouse model assessed as anorexia at 2000 mg/kg,IG administration for 7 days; type: organism-based; conditions: in vivo, po, 168 h, time 7 day
[20] = Subacute toxicity in C57BL/6 mouse assessed as kidney histological changes at 10 mg/kg,ip administrated for 14 days; type: organism-based; conditions: in vivo, 336 h, time 14 day
[21] = molecular target: NACHT, LRR and PYD domains-containing protein 3 (Homo sapiens, UniProt Q96P20); experiment: Binding affinity to human NLRP3 assessed as equilibrium dissociation constant by surface plasmon resonance assay
[22] = Clearance in Sprague-Dawley rat at 1 mg/kg,iv measured after 24 hrs by HPLC-MS/MS analysis; type: ADME, organism-based; conditions: in vivo
[23] = test system: Mus musculus; experiment: Anti-inflammatory activity in DSS-induced ulcerative colitis C57BL/6 mouse model assessed as decrease in IL-18 expression in colon at 10 mg/kg,ip administrated for 9 days by immunohistochemistry analysis; type: functional, organism-based; conditions: time 9.0 day
[24] = Acute toxicity in Kunming mouse model assessed as lethal dose at IG administration for 7 days; conditions: in vivo, po, time 7 day
[25] = Subacute toxicity in C57BL/6 mouse assessed as heart histological changes at 100 mg/kg,ip administrated for 14 days; type: organism-based; conditions: in vivo, 336 h, time 14 day
[26] = Subacute toxicity in C57BL/6 mouse assessed as kidney histological changes at 100 mg/kg,ip administrated for 14 days; type: organism-based; conditions: in vivo, 336 h, time 14 day
[27] = Drug distribution in Sprague-Dawley rat plasma at 1 mg/kg,iv measured for 0.5 to 2 hrs by HPLC-MS/MS analysis; type: ADME, organism-based; conditions: in vivo, time 0.5-2 hrs
[28] = AUC (0-infinity) in Sprague-Dawley rat at 1 mg/kg,iv measured after 24 hrs by HPLC-MS/MS analysis; type: ADME, organism-based; set-up: time 24 hrs, dose 1 mg/kg, route iv; conditions: in vivo
[29] = Subacute toxicity in C57BL/6 mouse assessed as change in spleen weight at 100 mg/kg,ip administrated for 14 days; type: organism-based; conditions: in vivo, 336 h, time 14 day
[30] = Subacute toxicity in C57BL/6 mouse assessed as liver histological changes at 10 mg/kg,ip administrated for 14 days; type: organism-based; conditions: in vivo, 336 h, time 14 day
[31] = test system: Mus musculus; experiment: Anti-inflammatory activity in DSS-induced ulcerative colitis C57BL/6 mouse model assessed as decrease in NLRP3 expression in colon at 10 mg/kg,ip administrated for 9 days by immunohistochemistry analysis; type: functional, organism-based; conditions: time 9.0 day
[32] = Cytotoxicity against mouse J774.A1 cells incubated for 24 hrs by resazurin reagent based assay; type: toxicity, cell-based
[33] = Acute toxicity in Kunming mouse model assessed as clonic convulsion at 2000 mg/kg,IG administration for 7 days; type: organism-based; conditions: in vivo, po, 168 h, time 7 day
[34] = test system: Mus musculus; experiment: Anti-inflammatory activity in DSS-induced ulcerative colitis C57BL/6 mouse model assessed as reduction in inflammatory cell infiltration in colon at 10 mg/kg,ip administrated for 9 days by Hematoxylin-eosin staining based microscopic analysis; type: functional, organism-based; conditions: time 9.0 day
[35] = Subacute toxicity in C57BL/6 mouse assessed as lung histological changes at 10 mg/kg,ip administrated for 14 days; type: organism-based; conditions: in vivo, 336 h, time 14 day
[36] = Drug distribution in Sprague-Dawley rat liver at 1 mg/kg,iv measured for 0.5 to 2 hrs by HPLC-MS/MS analysis; type: ADME, organism-based; conditions: in vivo, time 0.5-2 hrs
[37] = Subacute toxicity in C57BL/6 mouse assessed as change in liver weight at 10 mg/kg,ip administrated for 14 days; type: organism-based; conditions: in vivo, 336 h, time 14 day
[38] = Acute toxicity in Kunming mouse model assessed as behavioral abnormalities at 2000 mg/kg,IG administration for 7 days; type: organism-based; conditions: in vivo, po, 168 h, time 7 day
[39] = Subacute toxicity in C57BL/6 mouse assessed as body weight gain at 10 mg/kg,ip administrated for 14 days; type: organism-based; conditions: in vivo, 336 h, time 14 day
[40] = molecular target: NLR family CARD domain-containing protein 4 (Mus musculus) (UniProt Q3UP24); experiment: Inhibition of NLRC4 inflammasome in mouse J774.A1 cells assessed as inhibition of LPS/flagellin-induced IL-1 beta secretion at 10 uM pretreated with LPS and compound for 1 hr followed by flagellin addition measured after 6 hrs by ELISA; type: cell-based; conditions: time 7.0 hrs
[41] = Acute toxicity in Kunming mouse model assessed as ruffled fur at 2000 mg/kg,IG administration for 7 days; type: organism-based; conditions: in vivo, po, 168 h, time 7 day
[42] = test system: Mus musculus; experiment: Anti-inflammatory activity in C57BL/6 mouse assessed as inhibition of LPS-induced TNFF-alpha secretion at 10 mg/kg,ip administrated for 1 hr followed by LPS stimulation for 2.5 hrs by ELISA analysis; type: functional, organism-based

Sequence of NLR family CARD domain-containing protein 4 (Mus musculus) (Q3UP24 whole entry, the tested form may be a part): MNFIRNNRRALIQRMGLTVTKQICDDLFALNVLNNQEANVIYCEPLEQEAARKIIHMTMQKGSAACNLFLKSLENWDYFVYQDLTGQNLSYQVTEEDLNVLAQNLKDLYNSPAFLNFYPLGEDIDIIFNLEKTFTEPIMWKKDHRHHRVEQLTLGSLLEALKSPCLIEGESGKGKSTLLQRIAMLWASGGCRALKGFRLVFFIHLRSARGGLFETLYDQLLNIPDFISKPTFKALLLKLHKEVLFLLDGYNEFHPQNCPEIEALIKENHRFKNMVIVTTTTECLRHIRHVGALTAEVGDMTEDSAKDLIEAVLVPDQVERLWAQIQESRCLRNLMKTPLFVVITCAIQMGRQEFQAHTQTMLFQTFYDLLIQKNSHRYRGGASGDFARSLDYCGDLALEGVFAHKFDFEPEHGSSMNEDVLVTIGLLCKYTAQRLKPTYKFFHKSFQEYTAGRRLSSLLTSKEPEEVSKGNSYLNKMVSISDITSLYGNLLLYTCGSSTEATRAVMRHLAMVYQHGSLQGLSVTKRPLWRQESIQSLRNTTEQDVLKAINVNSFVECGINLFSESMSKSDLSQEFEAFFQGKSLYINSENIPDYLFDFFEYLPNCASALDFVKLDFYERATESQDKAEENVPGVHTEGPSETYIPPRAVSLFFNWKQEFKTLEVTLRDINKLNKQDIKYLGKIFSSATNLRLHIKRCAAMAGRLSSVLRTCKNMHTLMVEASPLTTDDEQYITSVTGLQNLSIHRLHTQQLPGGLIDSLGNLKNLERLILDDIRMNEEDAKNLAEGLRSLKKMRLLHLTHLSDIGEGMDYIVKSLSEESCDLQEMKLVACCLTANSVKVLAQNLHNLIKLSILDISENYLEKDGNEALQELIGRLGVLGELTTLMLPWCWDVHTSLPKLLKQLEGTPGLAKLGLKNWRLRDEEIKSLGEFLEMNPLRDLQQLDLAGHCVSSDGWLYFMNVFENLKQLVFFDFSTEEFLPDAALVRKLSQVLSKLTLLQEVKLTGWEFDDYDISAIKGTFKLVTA
Sequence of NACHT, LRR and PYD domains-containing protein 3 (Q96P20 whole entry, the tested form may be a part): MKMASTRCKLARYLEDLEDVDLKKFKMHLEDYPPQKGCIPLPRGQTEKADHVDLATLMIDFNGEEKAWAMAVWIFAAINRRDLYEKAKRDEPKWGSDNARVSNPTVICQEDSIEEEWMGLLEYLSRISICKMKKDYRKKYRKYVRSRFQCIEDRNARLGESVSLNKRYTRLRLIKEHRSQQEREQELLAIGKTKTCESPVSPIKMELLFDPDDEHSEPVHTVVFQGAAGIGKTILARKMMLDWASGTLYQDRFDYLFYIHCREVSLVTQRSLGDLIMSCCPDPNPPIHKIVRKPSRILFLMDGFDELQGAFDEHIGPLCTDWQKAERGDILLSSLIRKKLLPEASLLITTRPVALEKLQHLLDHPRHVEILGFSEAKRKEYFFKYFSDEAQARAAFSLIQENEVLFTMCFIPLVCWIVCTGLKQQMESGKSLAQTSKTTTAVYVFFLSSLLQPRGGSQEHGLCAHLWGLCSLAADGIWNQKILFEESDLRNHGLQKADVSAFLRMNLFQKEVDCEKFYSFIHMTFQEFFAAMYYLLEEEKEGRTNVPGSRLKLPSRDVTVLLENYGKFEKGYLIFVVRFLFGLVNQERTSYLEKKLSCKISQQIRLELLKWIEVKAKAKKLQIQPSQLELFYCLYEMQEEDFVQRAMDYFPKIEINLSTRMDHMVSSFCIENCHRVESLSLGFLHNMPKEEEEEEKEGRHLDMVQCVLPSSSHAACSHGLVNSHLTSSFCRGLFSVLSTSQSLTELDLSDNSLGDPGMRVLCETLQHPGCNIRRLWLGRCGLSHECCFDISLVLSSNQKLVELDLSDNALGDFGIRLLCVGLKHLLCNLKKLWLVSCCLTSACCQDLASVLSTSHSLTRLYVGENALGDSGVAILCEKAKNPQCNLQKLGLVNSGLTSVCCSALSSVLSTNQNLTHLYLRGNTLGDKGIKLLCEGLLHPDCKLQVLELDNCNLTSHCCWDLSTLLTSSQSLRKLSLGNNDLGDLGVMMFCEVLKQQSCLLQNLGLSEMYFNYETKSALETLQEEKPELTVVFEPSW

**Q.** Which Activity [1] does the source give for `CCCNS(=O)(=O)c1ccc2c(c1)CC(N(Cc1cc(Cl)ccc1OCCOC)C(=O)c1cc3ccccc3o1)C2` (racemic) here?
**A.** The Activity was “Non-Toxic”.

**Q.** And the Drug uptake [2]?
**A.** The Drug uptake was “Active”.

**Q.** And the Drug uptake [3]?
**A.** Its Drug uptake is “Active”.

**Q.** What about the Activity [4] of the same molecule?
**A.** The Activity was “Non-Toxic”.

**Q.** And the Activity [5]?
**A.** The Activity was “Non-Toxic”.

**Q.** What about the Activity [6] of the same molecule?
**A.** Its Activity is “Non-Toxic”.

**Q.** And the Stability [7]?
**A.** The Stability was “Stable”.

**Q.** What about the Activity [8] of the same molecule?
**A.** The Activity was “Active”.

**Q.** What about the Activity [9] of the same molecule?
**A.** The Activity was “Non-Toxic”.

**Q.** And the Activity [10]?
**A.** Its Activity is “Non-Toxic”.

**Q.** What about the Activity [11] of the same molecule?
**A.** The Activity was “Non-Toxic”.

**Q.** And the concentration at 0.5 h [12]?
**A.** Its concentration at 0.5 h is 35300 ng/g.

**Q.** What about the Activity [13] of the same molecule?
**A.** Its Activity is “Non-Toxic”.

**Q.** What about the Activity [14] of the same molecule?
**A.** The Activity was “Non-Toxic”.

**Q.** And the Activity [15]?
**A.** Its Activity is “Active”.

**Q.** What about the Activity [16] of the same molecule?
**A.** Its Activity is “Non-Toxic”.

**Q.** And the Activity [17]?
**A.** Its Activity is “Active”.

**Q.** What about the Stability [18] of the same molecule?
**A.** The Stability was “Stable”.

**Q.** What about the Activity [19] of the same molecule?
**A.** Its Activity is “Non-Toxic”.

**Q.** And the Activity [20]?
**A.** The Activity was “Non-Toxic”.

**Q.** What about the Kd [21] of the same molecule?
**A.** Its Kd is 0.103 µM.

**Q.** And the clearance [22]?
**A.** Its clearance is 78.4 mL/min/kg.

**Q.** And the Activity [23]?
**A.** Its Activity is “Active”.

**Q.** And the LD50 at 168 h [24]?
**A.** The LD50 at 168 h was 2000 mg/kg.

**Q.** What about the Activity [25] of the same molecule?
**A.** The Activity was “Non-Toxic”.

**Q.** And the Activity [26]?
**A.** Its Activity is “Non-Toxic”.

**Q.** And the Cp [27]?
**A.** Its Cp is 2094.04 ng/g.

**Q.** And the AUC(0-inf) [28]?
**A.** The AUC(0-inf) was 213 ng·h/mL.

**Q.** And the Activity [29]?
**A.** Its Activity is “Non-Toxic”.

**Q.** And the Activity [30]?
**A.** The Activity was “Non-Toxic”.

**Q.** And the Activity [31]?
**A.** The Activity was “Active”.

**Q.** And the CC50 at 24 h [32]?
**A.** The CC50 at 24 h was over 30 µM.

**Q.** And the Activity [33]?
**A.** The Activity was “Non-Toxic”.

**Q.** What about the Activity [34] of the same molecule?
**A.** The Activity was “Active”.

**Q.** And the Activity [35]?
**A.** The Activity was “Non-Toxic”.

**Q.** And the Drug uptake [36]?
**A.** The Drug uptake was “Active”.

**Q.** And the Activity [37]?
**A.** The Activity was “Non-Toxic”.

**Q.** And the Activity [38]?
**A.** Its Activity is “Non-Toxic”.

**Q.** And the Activity [39]?
**A.** The Activity was “Toxic”.

**Q.** What about the inhibition [40] of the same molecule?
**A.** Its inhibition is “inactive”.

**Q.** And the Activity [41]?
**A.** The Activity was “Non-Toxic”.

**Q.** What about the Activity [42] of the same molecule?
**A.** The Activity was “Active”.

Reference: ChEMBL document CHEMBL5375972, “Discovery of Novel 2,3-Dihydro-1H-indene-5-sulfonamide NLRP3 Inflammasome Inhibitors Targeting Colon as a Potential Therapy for Colitis” (J Med Chem, 2023)
